Results on 28 molecules are retold here after US8785439B2, “2,5,7-substituted oxazolopyrimidine derivatives” (Sanofi, priority 2010, dated 2014).

This assay concerns the target T1, human Edg-1 receptor (Homo sapiens, UniProt P21453).
T1 construct: FLAG (N); expressed in transfected cells; membrane preparation
The assay is described as follows: GTP-γ-S assay using human Edg-1 receptors (SPA, CHO Flp-In cell membrane preparation). In kind it is biochemical. Particulars: test compound at 10 μM; high control 10 μM S1P regarded as 100% activation; background-corrected; triplicate; read-out: % Activation (Edg-1 receptor activation in percent of the activation by 10 μM S1P). The source says:
Determination of the Pharmacological Activity A) GTP-γ-S Assay Using Human Edg-1 Receptors
In order to determine the Edg-1 receptor activation by the compounds of the invention, a GTP-γ-S (guanosine 5′-[γ-thio]triphosphate) assay for G-protein coupled receptor binding based on the scintillation proximity assay principle was used, employing a cell membrane preparation from a CHO Flp-In cell line which constitutively overexpresses the human Edg-1 receptor.
The Flp-In™ expression system (Invitrogen, cat. no. K6010-01) allows the generation of stable mammalian cell lines into which the gene of interest has been integrated through homologous recombination at a specific genomic location called Flp Recombination Target (FRT) site by means of a Flp recombinase encoded by the pOG44 expression plasmid. The integration of the pcDNA5/FRT expression construct into the Flp-In host cell line genome results in the transcription of the gene of interest. The stably transfected cells become hygromycin-resistant.
One day prior to transfection, 200 000 Flp-In-CHO cells were seeded in Ham F-12 medium (Invitrogen, cat. no. 31765) supplemented with 10% fetal calf serum (FCS; Perbio Science, cat. no. SH30068.03) in a 6-well plate and incubated at 37° C./5% CO2 overnight. Using the FuGENE® 6 transfection reagent (Roche, cat. no. 11988387001), cells were cotransfected with the Flp recombinase expression plasmid pOG44 and a modified plasmid additionally containing the edg-1 gene (accession no. NM_001400) termed as pcDNA5-FRT-TO_nFLAG_DEST-EDG-1 with a 9:1 ratio. To obtain the modified pcDNA5-FRT-TO_nFLAG_DEST plasmid, the Invitrogen plasmid pcDNA5/FRT/TO (Invitrogen, cat. no. V6520-20) was adapted to the Gateway® (Invitrogen) cloning system by inserting a Gateway cassette containing attR recombination sites flanking a ccdB gene and a chloramphenicol-resistance gene (Gateway conversion system, Invitrogen, cat. no. 11828-029). In addition a FLAG tag epitope was added before the 5′ att recombination site to allow recombinant expression of N-terminally FLAG-tagged proteins.
For the transfection of one well, 1.08 μg of pOG44 and 0.12 μg of pcDNA5-FRT-TO_nFLAG_DEST-EDG-1 were mixed with 100 μl of serum-free Ham F-12 medium containing 6 μl of FuGENE® 6 transfection reagent. After 20 min of incubation, the transfection reagent/DNA complex was distributed dropwise on the cells. The cells were incubated for 24 h at 37° C. Then the cells from 3 wells each were transferred to a T75 flask (Greiner Cellstar®, cat. no. 658175) containing Ham F-12 medium supplemented with 10% of FCS but without antibiotic and were incubated another 24 h. 48 h after transfection, the medium was replaced by selection medium (Ham F-12 supplemented with 10% of FCS and 300 μg/ml of hygromycin B (Invitrogen, cat. no. 10687-010)). The medium was exchanged every 2 to 3 days until a resistant population of cells had grown. […] After 2 weeks of selection, the cells were transferred into T175 flasks (Greiner Cellstar®, cat. no. 660175) and cultivated for batch production. Cells were harvested from the culture flasks by short treatment (2 to 5 min) with Accutase (PAA, cat. no. L11-007), resuspended in selection medium (see above) and centrifuged at 200×g for 5 min. Cells were resuspended in a mixture of 90% of FCS and 10% of dimethylsulfoxide and stored frozen in liquid nitrogen.
A membrane preparation was obtained by standard methods from the afore-described CHO Flp-In cell line constitutively overexpressing the human Edg-1 receptor. Briefly, the cryopreserved cells were taken in culture and grown until confluency in T175 cell culture flasks (Becton Dickinson, cat. no. 35 5001). […]

T1 sequence (P21453 whole entry): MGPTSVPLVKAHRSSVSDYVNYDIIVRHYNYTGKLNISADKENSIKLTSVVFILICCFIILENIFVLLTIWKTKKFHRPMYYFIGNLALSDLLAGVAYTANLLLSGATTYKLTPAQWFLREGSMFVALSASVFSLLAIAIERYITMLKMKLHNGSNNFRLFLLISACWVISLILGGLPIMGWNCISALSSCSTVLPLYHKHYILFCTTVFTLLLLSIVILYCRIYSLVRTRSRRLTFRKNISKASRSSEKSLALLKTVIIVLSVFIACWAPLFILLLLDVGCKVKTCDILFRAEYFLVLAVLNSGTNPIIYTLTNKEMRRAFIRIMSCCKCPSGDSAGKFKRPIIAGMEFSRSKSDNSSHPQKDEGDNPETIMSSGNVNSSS

With `Cc1cccc(-c2nc3c(OCC4CC4)nc(OCC4COC(C)(C)O4)nc3o2)c1` (stereo not shown) [Example 36, 7-cyclopropylmethoxy-5-(2,2-dimethyl-[1,3]dioxolan-4-ylmethoxy)-2-(3-methyl-phenyl)-oxazolo[5,4-d]pyrimidine], the activation at 10 µM came to 78%. Take `CCCOc1nc(Oc2ccc(F)c(C(F)(F)F)c2)nc2oc(-c3cccc(C)c3)nc12` [Example 129, 5-(4-fluoro-3-trifluoromethyl-phenoxy)-7-propoxy-2-(3-methyl-phenyl)-oxazolo[5,4-d]pyrimidine]: the activation at 10 µM worked out at 85%. As for `CCCOc1nc(Oc2cc(F)ccc2C)nc2oc(-c3ccc(Cl)c(Cl)c3)nc12` [Example 157, 2-(3,4-dichloro-phenyl)-5-(5-fluoro-2-methyl-phenoxy)-7-propoxy-oxazolo[5,4-d]pyrimidine], the activation at 10 µM came out at 92%. Take `CCCOc1nc(NC2CCC(C)CC2)nc2oc(-c3cc(F)ccc3Cl)nc12` (stereo not shown) [Example 113, [2-(2-chloro-5-fluoro-phenyl)-7-propoxy-oxazolo[5,4-d]pyrimidin-5-yl]-(4-methyl-cyclohexyl)-amine]: the activation at 10 µM was determined as 52%.

For the molecule `CCOc1nc(Oc2cc(C)nn2C)nc2oc(-c3cc(F)ccc3Cl)nc12` [Example 10, 2-(2-chloro-5-fluoro-phenyl)-5-(2,5-dimethyl-2H-pyrazol-3-yloxy)-7-ethoxy-oxazolo[5,4-d]pyrimidine], the activation at 10 µM turned out to be 107%.

`CCCOc1nc(N[C@H]2CCC[C@H](C)C2)nc2oc(-c3cc(F)ccc3Cl)nc12` [Example 147, [2-(2-chloro-5-fluoro-phenyl)-7-propoxy-oxazolo[5,4-d]pyrimidin-5-yl]-((1S,3S)-3-methyl-cyclohexyl)-amine]: the activation at 10 µM turned out to be 63%. With `CCCOc1nc(Oc2c(F)cccc2F)nc2oc(-c3cccc(C)c3)nc12` [Example 97, 5-(2,6-difluoro-phenoxy)-7-propoxy-2-(3-methyl-phenyl)-oxazolo[5,4-d]pyrimidine], the activation at 10 µM stood at 124%.

With `CCCOc1nc(Oc2ccccc2F)nc2oc(-c3cccc(OC)c3)nc12` [Example 40, 5-(2-fluoro-phenoxy)-2-(3-methoxy-phenyl)-7-propoxy-oxazolo[5,4-d]pyrimidine], the activation at 10 µM was found to be 120%.

Turning to `Cc1cccc(-c2nc3c(OCC4CC4)nc(Oc4ccccc4F)nc3o2)c1` [Example 29, 7-cyclopropylmethoxy-5-(2-fluoro-phenoxy)-2-(3-methyl-phenyl)-oxazolo[5,4-d]pyrimidine], the activation at 10 µM turned out to be 109%. As for `CCCOc1nc(Oc2cccnc2)nc2oc(-c3cccc(OC)c3)nc12` [Example 41, 2-(3-methoxy-phenyl)-7-propoxy-5-(pyridin-3-yloxy)-oxazolo[5,4-d]pyrimidine], the activation at 10 µM amounted to 102%. For the molecule `CCCOc1nc(Oc2cccc(OC)c2)nc2oc(-c3cccc(C)c3)nc12` [Example 118, 5-(3-methoxy-phenoxy)-7-propoxy-2-(3-methyl-phenyl)-oxazolo[5,4-d]pyrimidine], the activation at 10 µM came out at 98%. As for `CCCOc1nc(SC2CCS(=O)(=O)C2)nc2oc(-c3cccc(C)c3)nc12` (stereo not shown) [Example 27, 5-(1,1-dioxo-tetrahydro-1lambda6-thiophen-3-ylsulfanyl)-7-propoxy-2-(3-methyl-phenyl)-oxazolo[5,4-d]pyrimidine], the figure is 93%; as for `Cc1cc(Oc2nc(OCC3CC3)c3nc(-c4cc(F)ccc4Cl)oc3n2)n(C)n1` [Example 11, 2-(2-chloro-5-fluoro-phenyl)-7-cyclopropylmethoxy-5-(2,5-dimethyl-2H-pyrazol-3-yloxy)-oxazolo[5,4-d]pyrimidine], 105%; as for `CCCOc1nc(Oc2ccccc2)nc2oc(-c3cc(C)ccc3F)nc12` [Example 33, 2-(2-fluoro-5-methyl-phenyl)-5-phenoxy-7-propoxy-oxazolo[5,4-d]pyrimidine], 124%. For the molecule `CCCOc1nc(Oc2ccccc2C(F)(F)F)nc2oc(-c3cccc(C)c3)nc12` [Example 141, 7-propoxy-2-(3-methyl-phenyl)-5-(2-trifluoromethyl-phenoxy)-oxazolo[5,4-d]pyrimidine], the activation at 10 µM came to 103%. As to `CCCOc1nc(OCC2COC(C)(C)O2)nc2oc(-c3ccc(Cl)c(Cl)c3)nc12` (stereo not shown) [Example 45, 2-(3,4-dichloro-phenyl)-5-(2,2-dimethyl-[1,3]dioxolan-4-ylmethoxy)-7-propoxy-oxazolo[5,4-d]pyrimidine], the activation at 10 µM came to 74%. Consider `CCCOc1nc(Oc2cc(F)ccc2Cl)nc2oc(-c3cccc(C)c3)nc12` [Example 101, 5-(2-chloro-5-fluoro-phenoxy)-7-propoxy-2-(3-methyl-phenyl)-oxazolo[5,4-d]pyrimidine], for which the activation at 10 µM stood at 104%. Regarding `CCCOc1nc(Oc2cc(C)cc(C)c2C)nc2oc(-c3cccc(C)c3)nc12` [Example 123, 7-propoxy-2-(3-methyl-phenyl)-5-(2,3,5-trimethyl-phenoxy)-oxazolo[5,4-d]pyrimidine], the activation at 10 µM was found to be 65%. Then `CCCOc1nc(Oc2ccc(Cl)cc2C)nc2oc(-c3cccc(C)c3)nc12` [Example 88, 5-(4-chloro-2-methyl-phenoxy)-7-propoxy-2-(3-methyl-phenyl)-oxazolo[5,4-d]pyrimidine], with 86%. As for `CCCOc1nc(Oc2ccccc2F)nc2oc(-c3cccc(F)c3)nc12` [Example 31, 5-(2-fluoro-phenoxy)-2-(3-fluoro-phenyl)-7-propoxy-oxazolo[5,4-d]pyrimidine], the activation at 10 µM was determined as 80%. Take `CCCOc1nc(Oc2cc(C)ccc2C)nc2oc(-c3cccc(C)c3)nc12` [Example 133, 5-(2,5-dimethyl-phenoxy)-7-propoxy-2-(3-methyl-phenyl)-oxazolo[5,4-d]pyrimidine]: the activation at 10 µM worked out at 92%. As for `CCCOc1nc(Oc2cccnc2)nc2oc(-c3cccc(C)c3)nc12` [Example 77, 7-propoxy-5-(pyridin-3-yloxy)-2-(3-methyl-phenyl)-oxazolo[5,4-d]pyrimidine], the figure is 111%; as for `CCCOc1nc(NC2CCOCC2)nc2oc(-c3cccc(C)c3)nc12` [Example 3, (7-Propoxy-2-(3-methyl-phenyl)-oxazolo[5,4-d]pyrimidin-5-yl)-(tetrahydro-pyran-4-yl)-amine], 74%; as for `CCCOc1nc(Sc2nccs2)nc2oc(-c3cccc(C)c3)nc12` [Example 4], 93%. With `CCCOc1nc(Oc2cncc(F)c2)nc2oc(-c3ccc(Cl)c(Cl)c3)nc12` [Example 160, 2-(3,4-dichloro-phenyl)-5-(5-fluoro-pyridin-3-yloxy)-7-propoxy-oxazolo[5,4-d]pyrimidine], the activation at 10 µM stood at 75%.

With `CCCOc1nc(Sc2ccc(C)cn2)nc2oc(-c3cc(F)ccc3Cl)nc12` [Example 155, 2-(2-chloro-5-fluoro-phenyl)-5-(5-methyl-pyridin-2-ylsulfanyl)-7-propoxy-oxazolo[5,4-d]pyrimidine], the activation at 10 µM turned out to be 62%. Take `Cc1cc(Oc2nc(OCC3CC3)c3nc(-c4cccc(F)c4)oc3n2)n(C)n1` [Example 102, 7-cyclopropylmethoxy-5-(2,5-dimethyl-2H-pyrazol-3-yloxy)-2-(3-fluoro-phenyl)-oxazolo[5,4-d]pyrimidine]: the activation at 10 µM amounted to 130%.

As for `CCCOc1nc(Oc2ccc(C)c(Cl)c2)nc2oc(-c3cccc(C)c3)nc12` [Example 89, 5-(3-chloro-4-methyl-phenoxy)-7-propoxy-2-(3-methyl-phenyl)-oxazolo[5,4-d]pyrimidine], the activation at 10 µM was found to be 96%.
